{"source": "patent US20080176936A1", "about": "“Classes of Compounds that Interact with Integrins” (priority 2005, published 2008)", "data": [{"biological_target": "T1, αllbβ3 integrin (Homo sapiens, UniProt P05106+P08514)", "T1 construct": "Human platelet membrane preparations were used as a source of αllbβ3 integrin; from tissue; host or cells: human platelets (membrane preparation)", "T1 sequence (P08514 32-887 limits assumed)": "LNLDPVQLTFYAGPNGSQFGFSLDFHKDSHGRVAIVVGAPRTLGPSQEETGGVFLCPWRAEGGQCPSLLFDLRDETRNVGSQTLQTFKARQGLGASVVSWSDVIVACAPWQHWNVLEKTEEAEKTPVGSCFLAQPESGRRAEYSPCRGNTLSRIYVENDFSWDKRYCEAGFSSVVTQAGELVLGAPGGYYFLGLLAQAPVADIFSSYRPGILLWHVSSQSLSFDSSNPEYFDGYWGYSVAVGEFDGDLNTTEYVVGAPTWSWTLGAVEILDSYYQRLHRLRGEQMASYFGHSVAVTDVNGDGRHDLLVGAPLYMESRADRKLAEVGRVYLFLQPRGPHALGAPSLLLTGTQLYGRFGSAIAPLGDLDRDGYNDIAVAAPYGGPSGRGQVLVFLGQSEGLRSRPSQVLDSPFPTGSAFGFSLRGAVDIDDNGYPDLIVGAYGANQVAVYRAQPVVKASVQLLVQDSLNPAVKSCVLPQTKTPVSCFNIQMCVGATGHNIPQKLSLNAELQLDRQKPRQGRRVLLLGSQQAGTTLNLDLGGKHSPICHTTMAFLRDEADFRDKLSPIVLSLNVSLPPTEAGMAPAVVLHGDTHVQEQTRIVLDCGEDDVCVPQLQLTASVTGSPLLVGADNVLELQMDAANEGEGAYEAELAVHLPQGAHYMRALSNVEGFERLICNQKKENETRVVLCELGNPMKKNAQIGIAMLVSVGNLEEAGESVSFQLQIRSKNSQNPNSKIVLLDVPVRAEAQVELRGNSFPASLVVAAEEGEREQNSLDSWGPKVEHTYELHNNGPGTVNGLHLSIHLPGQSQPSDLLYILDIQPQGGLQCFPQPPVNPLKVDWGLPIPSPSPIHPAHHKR", "T1 sequence (P08514 891-1039 partner limits assumed)": "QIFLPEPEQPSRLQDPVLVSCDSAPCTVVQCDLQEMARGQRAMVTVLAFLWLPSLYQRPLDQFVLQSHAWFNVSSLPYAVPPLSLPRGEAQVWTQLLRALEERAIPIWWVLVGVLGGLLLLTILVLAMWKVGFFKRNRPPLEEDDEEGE", "T1 sequence (P05106 27-788)": "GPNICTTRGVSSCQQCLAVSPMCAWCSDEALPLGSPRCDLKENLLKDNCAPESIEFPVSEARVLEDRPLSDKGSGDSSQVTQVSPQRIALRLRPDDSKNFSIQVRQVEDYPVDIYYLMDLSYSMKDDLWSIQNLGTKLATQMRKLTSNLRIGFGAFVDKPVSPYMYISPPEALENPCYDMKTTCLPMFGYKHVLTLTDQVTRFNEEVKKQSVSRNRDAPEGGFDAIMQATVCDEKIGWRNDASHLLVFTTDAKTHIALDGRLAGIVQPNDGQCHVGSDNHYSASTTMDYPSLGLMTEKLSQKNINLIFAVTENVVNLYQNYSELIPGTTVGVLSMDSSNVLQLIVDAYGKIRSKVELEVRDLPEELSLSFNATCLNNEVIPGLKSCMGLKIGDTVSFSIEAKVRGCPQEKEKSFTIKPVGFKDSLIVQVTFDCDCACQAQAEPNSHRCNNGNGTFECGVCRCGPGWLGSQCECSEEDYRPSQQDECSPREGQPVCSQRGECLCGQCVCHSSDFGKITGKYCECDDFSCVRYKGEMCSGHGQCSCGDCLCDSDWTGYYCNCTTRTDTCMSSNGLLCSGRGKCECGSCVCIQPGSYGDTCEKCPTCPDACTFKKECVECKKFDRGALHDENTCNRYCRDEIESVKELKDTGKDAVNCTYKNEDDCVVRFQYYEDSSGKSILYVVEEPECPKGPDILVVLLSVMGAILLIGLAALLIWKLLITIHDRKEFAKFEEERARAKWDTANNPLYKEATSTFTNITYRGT", "test": "ELISA: inhibition of binding of αllbβ3 integrin membrane preparation to coated extracellular matrix protein", "conditions": "substrate fibrinogen, human platelet membrane preparation", "description": "(§1) An ELISA assay based on the published method of Bethert et al., 2000, J Biol Chem 275, 33308-23, was employed.\n(§2) Briefly, appropriate microtitre plates were coated with either Fibrinogen or Vitronectin (10 μg/well). These extracellular matrix proteins contain the RGD amino acid sequence that is recognized by αllbβ3 integrin. Human platelet membrane preparations were used as a source of αllbβ3 integrin and the cell line WM-115 was used as a source of αVβ3 integrin. Inhibition of the binding of αllbβ3 integrin containing membrane preparations to the extracellular matrix protein was determined by pre-incubating the platelet membrane preparation with test or control compounds. The binding of the αllbβ3 integrin containing membrane was the quantitated by using a rabbit anti-integrinβ3 antibody, a horse radish peroxidase coupled second antibody and a standard colorimetric detection system.", "values": [{"smiles": "Nc1cccc(C(=O)NC2C(O)OC(COCC(=O)O)C(O)C2OCc2ccc(Br)cc2)c1", "note": "(single isomer, unassigned) [Compound 1]", "INHIBITION @ 250 uM RECEPTOR allBb3 SUBSTRATE FIBRINOGEN": "+ (36% to 60% inhibition at 250 micromolar)"}, {"smiles": "COC1OC(COCc2cccc(N)c2)C(O)C(OCc2ccc(Br)cc2)C1NC(=O)c1ccc(C(=O)O)cc1", "note": "(single isomer, unassigned) [Compound 3]", "INHIBITION @ 250 uM RECEPTOR allBb3 SUBSTRATE FIBRINOGEN": "+ (36% to 60% inhibition at 250 micromolar)"}, {"smiles": "COC1OC(COCc2cccc(N)c2)C(O)C(OCc2ccc(Br)cc2)C1NC(=O)c1ccc(C(=O)O)cc1", "note": "(single isomer, unassigned) [Compound 4]", "INHIBITION @ 250 uM RECEPTOR allBb3 SUBSTRATE FIBRINOGEN": "− (0% to 35% inhibition at 250 micromolar)"}, {"smiles": "COC1OC(COCc2ccccc2)C(O)C(OCC(=O)O)C1NC(=O)c1cccc(N)c1", "note": "(single isomer, unassigned) [Compound 5]", "INHIBITION @ 250 uM RECEPTOR allBb3 SUBSTRATE FIBRINOGEN": "++ (61% to 80% inhibition at 250 micromolar)"}, {"smiles": "COC1OC(COCc2ccccc2)C(O)C(OCC(=O)O)C1NC(=O)c1cccc(N)c1", "note": "(single isomer, unassigned) [Compound 6]", "INHIBITION @ 250 uM RECEPTOR allBb3 SUBSTRATE FIBRINOGEN": "− (0% to 35% inhibition at 250 micromolar)"}, {"smiles": "COC1OC(COCc2ccc(Br)cc2)C(O)C(OCC(=O)O)C1NC(=O)c1cccc(N)c1", "note": "(single isomer, unassigned) [Compound 7]", "INHIBITION @ 250 uM RECEPTOR allBb3 SUBSTRATE FIBRINOGEN": "+ (36% to 60% inhibition at 250 micromolar)"}, {"smiles": "COC1OC(COCc2ccc(Br)cc2)C(O)C(OCC(=O)O)C1NC(=O)c1cccc(N)c1", "note": "(single isomer, unassigned) [Compound 8]", "INHIBITION @ 250 uM RECEPTOR allBb3 SUBSTRATE FIBRINOGEN": "+ (36% to 60% inhibition at 250 micromolar)"}, {"smiles": "COC1OC(COCc2cccc(N)c2)C(O)C(OCC(=O)O)C1NC(=O)c1ccc(Cl)cc1", "note": "(single isomer, unassigned) [Compound 9]", "INHIBITION @ 250 uM RECEPTOR allBb3 SUBSTRATE FIBRINOGEN": "+ (36% to 60% inhibition at 250 micromolar)"}, {"smiles": "COC1OC(COCc2cccc(N)c2)C(O)C(OCC(=O)O)C1NC(=O)c1ccc(Cl)cc1", "note": "(single isomer, unassigned) [Compound 10]", "INHIBITION @ 250 uM RECEPTOR allBb3 SUBSTRATE FIBRINOGEN": "++ (61% to 80% inhibition at 250 micromolar)"}, {"smiles": "COC1OC(COCc2ccccc2)C(O)C(OCc2ccc(C(=O)O)cc2)C1NC(=O)CCNC(=N)N", "note": "(single isomer, unassigned) [Compound 11]", "INHIBITION @ 250 uM RECEPTOR allBb3 SUBSTRATE FIBRINOGEN": "+ (36% to 60% inhibition at 250 micromolar)"}, {"smiles": "COC1OC(COCc2ccccc2)C(O)C(OCc2ccc(C(=O)O)cc2)C1NC(=O)CCNC(=N)N", "note": "(single isomer, unassigned) [Compound 12]", "INHIBITION @ 250 uM RECEPTOR allBb3 SUBSTRATE FIBRINOGEN": "++ (61% to 80% inhibition at 250 micromolar)"}]}, {"biological_target": "T1, αllbβ3 integrin", "test": "ELISA: inhibition of binding of αllbβ3 integrin membrane preparation to coated extracellular matrix protein", "conditions": "substrate vitronectin, human platelet membrane preparation", "description": "as §1, §2", "values": [{"smiles": "Nc1cccc(C(=O)NC2C(O)OC(COCC(=O)O)C(O)C2OCc2ccc(Br)cc2)c1", "note": "(single isomer, unassigned) [Compound 1]", "INHIBITION 250 uM RECEPTOR allBb3 SUBSTRATE VITRONECTIN": "+ (36% to 60% inhibition at 250 micromolar)"}, {"smiles": "COC1OC(COCc2cccc(N)c2)C(O)C(OCc2ccc(Br)cc2)C1NC(=O)c1ccc(C(=O)O)cc1", "note": "(single isomer, unassigned) [Compound 3]", "INHIBITION 250 uM RECEPTOR allBb3 SUBSTRATE VITRONECTIN": "+++ (81% to 100% inhibition at 250 micromolar)"}, {"smiles": "COC1OC(COCc2cccc(N)c2)C(O)C(OCc2ccc(Br)cc2)C1NC(=O)c1ccc(C(=O)O)cc1", "note": "(single isomer, unassigned) [Compound 4]", "INHIBITION 250 uM RECEPTOR allBb3 SUBSTRATE VITRONECTIN": "− (0% to 35% inhibition at 250 micromolar)"}, {"smiles": "COC1OC(COCc2ccccc2)C(O)C(OCC(=O)O)C1NC(=O)c1cccc(N)c1", "note": "(single isomer, unassigned) [Compound 5]", "INHIBITION 250 uM RECEPTOR allBb3 SUBSTRATE VITRONECTIN": "+++ (81% to 100% inhibition at 250 micromolar)"}, {"smiles": "COC1OC(COCc2ccccc2)C(O)C(OCC(=O)O)C1NC(=O)c1cccc(N)c1", "note": "(single isomer, unassigned) [Compound 6]", "INHIBITION 250 uM RECEPTOR allBb3 SUBSTRATE VITRONECTIN": "+++ (81% to 100% inhibition at 250 micromolar)"}, {"smiles": "COC1OC(COCc2ccc(Br)cc2)C(O)C(OCC(=O)O)C1NC(=O)c1cccc(N)c1", "note": "(single isomer, unassigned) [Compound 7]", "INHIBITION 250 uM RECEPTOR allBb3 SUBSTRATE VITRONECTIN": "+++ (81% to 100% inhibition at 250 micromolar)"}, {"smiles": "COC1OC(COCc2ccc(Br)cc2)C(O)C(OCC(=O)O)C1NC(=O)c1cccc(N)c1", "note": "(single isomer, unassigned) [Compound 8]", "INHIBITION 250 uM RECEPTOR allBb3 SUBSTRATE VITRONECTIN": "+++ (81% to 100% inhibition at 250 micromolar)"}, {"smiles": "COC1OC(COCc2cccc(N)c2)C(O)C(OCC(=O)O)C1NC(=O)c1ccc(Cl)cc1", "note": "(single isomer, unassigned) [Compound 9]", "INHIBITION 250 uM RECEPTOR allBb3 SUBSTRATE VITRONECTIN": "+++ (81% to 100% inhibition at 250 micromolar)"}, {"smiles": "COC1OC(COCc2cccc(N)c2)C(O)C(OCC(=O)O)C1NC(=O)c1ccc(Cl)cc1", "note": "(single isomer, unassigned) [Compound 10]", "INHIBITION 250 uM RECEPTOR allBb3 SUBSTRATE VITRONECTIN": "+++ (81% to 100% inhibition at 250 micromolar)"}, {"smiles": "COC1OC(COCc2ccccc2)C(O)C(OCc2ccc(C(=O)O)cc2)C1NC(=O)CCNC(=N)N", "note": "(single isomer, unassigned) [Compound 11]", "INHIBITION 250 uM RECEPTOR allBb3 SUBSTRATE VITRONECTIN": "+++ (81% to 100% inhibition at 250 micromolar)"}, {"smiles": "COC1OC(COCc2ccccc2)C(O)C(OCc2ccc(C(=O)O)cc2)C1NC(=O)CCNC(=N)N", "note": "(single isomer, unassigned) [Compound 12]", "INHIBITION 250 uM RECEPTOR allBb3 SUBSTRATE VITRONECTIN": "++ (61% to 80% inhibition at 250 micromolar)"}]}, {"biological_target": "T2, αVβ3 integrin (Homo sapiens, UniProt P05106+P06756)", "T2 construct": "the cell line WM-115 was used as a source of αVβ3 integrin; endogenous in cells; host or cells: WM-115 cell line", "T2 sequence (P06756 31-889 limits assumed)": "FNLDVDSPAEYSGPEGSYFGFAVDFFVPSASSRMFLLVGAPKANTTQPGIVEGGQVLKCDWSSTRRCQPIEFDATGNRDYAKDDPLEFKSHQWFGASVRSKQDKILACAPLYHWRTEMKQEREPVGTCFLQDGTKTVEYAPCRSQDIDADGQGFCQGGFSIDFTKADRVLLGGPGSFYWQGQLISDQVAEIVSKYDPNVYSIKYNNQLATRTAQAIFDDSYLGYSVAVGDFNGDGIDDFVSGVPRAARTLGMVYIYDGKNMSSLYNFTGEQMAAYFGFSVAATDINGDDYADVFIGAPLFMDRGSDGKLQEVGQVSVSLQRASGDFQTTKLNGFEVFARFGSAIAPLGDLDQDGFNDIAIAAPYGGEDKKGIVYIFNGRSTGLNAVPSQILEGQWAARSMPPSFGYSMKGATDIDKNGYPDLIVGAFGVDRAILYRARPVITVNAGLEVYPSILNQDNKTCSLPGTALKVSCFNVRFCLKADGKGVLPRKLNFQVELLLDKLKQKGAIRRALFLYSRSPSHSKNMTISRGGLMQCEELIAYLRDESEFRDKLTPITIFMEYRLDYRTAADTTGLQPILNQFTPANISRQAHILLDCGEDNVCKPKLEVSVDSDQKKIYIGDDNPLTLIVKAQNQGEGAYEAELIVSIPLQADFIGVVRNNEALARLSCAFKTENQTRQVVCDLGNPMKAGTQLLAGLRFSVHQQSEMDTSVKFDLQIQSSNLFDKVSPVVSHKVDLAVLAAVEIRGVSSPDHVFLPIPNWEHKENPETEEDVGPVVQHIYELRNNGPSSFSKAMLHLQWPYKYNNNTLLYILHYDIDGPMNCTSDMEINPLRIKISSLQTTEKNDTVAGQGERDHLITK", "T2 sequence (P06756 891-1048 partner limits assumed)": "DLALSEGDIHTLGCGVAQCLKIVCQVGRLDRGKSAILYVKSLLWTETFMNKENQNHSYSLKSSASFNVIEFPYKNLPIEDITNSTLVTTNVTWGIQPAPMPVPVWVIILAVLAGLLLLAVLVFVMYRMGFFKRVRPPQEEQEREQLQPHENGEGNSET", "T2 sequence (P05106 27-788)": "as the sequence (P05106 27-788) above", "test": "ELISA: inhibition of binding of αVβ3 integrin (source WM-115 cell line) to coated extracellular matrix protein", "conditions": "WM-115 cell line as integrin source", "description": "as §1, §2", "values": [{"smiles": "Nc1cccc(C(=O)NC2C(O)OC(COCC(=O)O)C(O)C2OCc2ccc(Br)cc2)c1", "note": "(single isomer, unassigned) [Compound 1]", "INHIBITION 250 uM RECEPTOR aVb3 SUBSTRATE FIBRINOGEN": "− (0% to 35% inhibition at 250 micromolar)"}, {"smiles": "COC1OC(COCc2cccc(N)c2)C(O)C(OCc2ccc(Br)cc2)C1NC(=O)c1ccc(C(=O)O)cc1", "note": "(single isomer, unassigned) [Compound 3]", "INHIBITION 250 uM RECEPTOR aVb3 SUBSTRATE FIBRINOGEN": "+ (36% to 60% inhibition at 250 micromolar)"}, {"smiles": "COC1OC(COCc2cccc(N)c2)C(O)C(OCc2ccc(Br)cc2)C1NC(=O)c1ccc(C(=O)O)cc1", "note": "(single isomer, unassigned) [Compound 4]", "INHIBITION 250 uM RECEPTOR aVb3 SUBSTRATE FIBRINOGEN": "+ (36% to 60% inhibition at 250 micromolar)"}, {"smiles": "COC1OC(COCc2ccccc2)C(O)C(OCC(=O)O)C1NC(=O)c1cccc(N)c1", "note": "(single isomer, unassigned) [Compound 5]", "INHIBITION 250 uM RECEPTOR aVb3 SUBSTRATE FIBRINOGEN": "++ (61% to 80% inhibition at 250 micromolar)"}, {"smiles": "COC1OC(COCc2ccccc2)C(O)C(OCC(=O)O)C1NC(=O)c1cccc(N)c1", "note": "(single isomer, unassigned) [Compound 6]", "INHIBITION 250 uM RECEPTOR aVb3 SUBSTRATE FIBRINOGEN": "+++ (81% to 100% inhibition at 250 micromolar)"}, {"smiles": "COC1OC(COCc2ccc(Br)cc2)C(O)C(OCC(=O)O)C1NC(=O)c1cccc(N)c1", "note": "(single isomer, unassigned) [Compound 7]", "INHIBITION 250 uM RECEPTOR aVb3 SUBSTRATE FIBRINOGEN": "+ (36% to 60% inhibition at 250 micromolar)"}, {"smiles": "COC1OC(COCc2ccc(Br)cc2)C(O)C(OCC(=O)O)C1NC(=O)c1cccc(N)c1", "note": "(single isomer, unassigned) [Compound 8]", "INHIBITION 250 uM RECEPTOR aVb3 SUBSTRATE FIBRINOGEN": "+++ (81% to 100% inhibition at 250 micromolar)"}, {"smiles": "COC1OC(COCc2cccc(N)c2)C(O)C(OCC(=O)O)C1NC(=O)c1ccc(Cl)cc1", "note": "(single isomer, unassigned) [Compound 9]", "INHIBITION 250 uM RECEPTOR aVb3 SUBSTRATE FIBRINOGEN": "+++ (81% to 100% inhibition at 250 micromolar)"}, {"smiles": "COC1OC(COCc2cccc(N)c2)C(O)C(OCC(=O)O)C1NC(=O)c1ccc(Cl)cc1", "note": "(single isomer, unassigned) [Compound 10]", "INHIBITION 250 uM RECEPTOR aVb3 SUBSTRATE FIBRINOGEN": "+++ (81% to 100% inhibition at 250 micromolar)"}, {"smiles": "COC1OC(COCc2ccccc2)C(O)C(OCc2ccc(C(=O)O)cc2)C1NC(=O)CCNC(=N)N", "note": "(single isomer, unassigned) [Compound 11]", "INHIBITION 250 uM RECEPTOR aVb3 SUBSTRATE FIBRINOGEN": "+ (36% to 60% inhibition at 250 micromolar)"}, {"smiles": "COC1OC(COCc2ccccc2)C(O)C(OCc2ccc(C(=O)O)cc2)C1NC(=O)CCNC(=N)N", "note": "(single isomer, unassigned) [Compound 12]", "INHIBITION 250 uM RECEPTOR aVb3 SUBSTRATE FIBRINOGEN": "− (0% to 35% inhibition at 250 micromolar)"}]}]}
